# Experimental data published in patent US20110020801A1, “Carboxylesterase-1 Polymorphisms and Methods of Use Therefor” (priority 2007, published 2011).
# Where a chain is given by its changes, count along the chain named. Several values for one entry are separate records, joined by “and”; a condition that tells them apart may be missing. Equal values may be shown once.
# Assays:
# WT CES1 [1] = target: T1, WT CES1 (Homo sapiens, UniProt P23141); assay: PNPA hydrolysis by S9 of Flp-In-293 cells expressing WT CES1; assay type: biochemical; settings: S9 20 μg/ml, 37° C., 10 min, mean ± S.D. (n = 3)
# T1 construct: inserting a stop codon after CES1A1 gene to yield the constructs expressing CES1 without V5-His tag; expressed in transfected cells
# T1 sequence (P23141 18-567): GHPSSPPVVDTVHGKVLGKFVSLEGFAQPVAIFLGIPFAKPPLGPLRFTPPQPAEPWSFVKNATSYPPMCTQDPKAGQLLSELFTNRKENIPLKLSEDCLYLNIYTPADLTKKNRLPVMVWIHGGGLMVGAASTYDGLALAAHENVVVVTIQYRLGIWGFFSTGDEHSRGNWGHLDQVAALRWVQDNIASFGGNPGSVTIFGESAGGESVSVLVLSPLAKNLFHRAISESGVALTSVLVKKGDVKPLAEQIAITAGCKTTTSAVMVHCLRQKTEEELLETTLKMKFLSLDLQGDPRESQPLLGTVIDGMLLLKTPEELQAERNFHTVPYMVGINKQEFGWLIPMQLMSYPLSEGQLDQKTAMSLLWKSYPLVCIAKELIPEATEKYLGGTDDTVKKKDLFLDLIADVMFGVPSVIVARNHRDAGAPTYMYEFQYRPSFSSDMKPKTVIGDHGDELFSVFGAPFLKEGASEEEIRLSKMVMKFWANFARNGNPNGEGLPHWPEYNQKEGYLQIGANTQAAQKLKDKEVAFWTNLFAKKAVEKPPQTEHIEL
# Description: The desired plasmid was designed such that the recombinant CES1 would be expressed in mammalian cells with a V5-His tag to facilitate detection and purification. Additionally, another plasmid was generated by inserting a stop codon after CES1A1 gene to yield the constructs expressing CES1 without V5-His tag. […] Thus, only untagged CES1 and its associated mutants were used in the enzymatic hydrolysis study. Two constructs of CES1 mutations, p.Gly143Glu and p.Asp260fs, were generated using a site-directed mutagenesis assay. All constructs were subjected to DNA sequencing analysis to confirm that the desired plasmids were obtained. […]
# (§1) After attaining approximately 95% confluence, cells were rinsed and harvested in PBS containing 10 mM HEPES (pH 7.4). […] The protein concentration was determined using a Pierce BCA assay kit (Rockford, Ill.).
# (§2) The hydrolysis of PNPA was carried out in 96-well culture plates at 37° C. in a final volume of 200 μl. […] The formation of p-nitrophenol (PNP) from PNPA was determined by the absorbance at 405 nm following incubation at 37° C. for 10 min.
# Thus, following the enzymatic assay, the values determined for spontaneous PNP and RA hydrolysis were subtracted from the total PNP and RA production. […]
# p.Gly143Glu CES1 [2] = target: T2, p.Gly143Glu CES1 (Homo sapiens, UniProt P23141, G143E); assay: PNPA hydrolysis by S9 of cells expressing p.Gly143Glu CES1; assay type: biochemical; settings: S9 20 μg/ml, 37° C., 10 min, mean ± S.D. (n = 3)
# T2 construct: inserting a stop codon after CES1A1 gene to yield the constructs expressing CES1 without V5-His tag; expressed in transfected cells
# T2 sequence (P23141 18-567 G143E/Y526T): T1 sequence (P23141 18-567) with G126E, Y509T
# Description: (§3) The desired plasmid was designed such that the recombinant CES1 would be expressed in mammalian cells with a V5-His tag to facilitate detection and purification. Additionally, another plasmid was generated by inserting a stop codon after CES1A1 gene to yield the constructs expressing CES1 without V5-His tag. […] Thus, only untagged CES1 and its associated mutants were used in the enzymatic hydrolysis study. Two constructs of CES1 mutations, p.Gly143Glu and p.Asp260fs, were generated using a site-directed mutagenesis assay. All constructs were subjected to DNA sequencing analysis to confirm that the desired plasmids were obtained. The identified CES1A1 plasmids (WT, p.Gly143Glu, and p.Asp260fs) were co-transfected with pOG44 plasmid at a ratio of 1:10 into Flp-In™-293 cells using […] (Invitrogen, Carlsbad, Calif.). Additionally, the self-ligated pcDNA5/FRT/V5-His-TOPO® vector was included as a vector control. Twenty-four hours after transfection, cells were washed with PBS and fresh complete medium (Dulbecco's modified Eagle's medium containing 10% fetal bovine serum) was added. Forty-eight hours after transfection, cells were split at a 1:10 ratio and cultured at 37° C. until cell attachment was observed. Culture medium was then removed and replenished with complete medium supplemented with the selecting antibiotic hygromycin B (100 μg/ml). The cell lines stably expressing WT, p.Gly143Glu, and p.Asp260fs CES1 were obtained only after a minimum 3-week selection process employing hygromycin B. Each generated cell line was identified by both expression detection and enzymatic function assays.
# (§4) After attaining approximately 95% confluence, cells were rinsed and harvested in PBS containing 10 mM HEPES (pH 7.4). The cell suspension was then sonicated and the supernatant 9000 (S9) fraction was collected by centrifugation at 9000 g for 30 min at 4° C. The protein concentration was determined using a Pierce BCA assay kit (Rockford, Ill.).
# as §2, with “μl. The S9 of cells expressing WT and mutant CES1 were diluted in reaction buffer (PBS containing 10 mM HEPES, pH 7.4) with a final S9 concentration of 20 μg/ml and preincubated at 37° C. for 10 min.” for “μl.”
# (§5) Thus, following the enzymatic assay, the values determined for spontaneous PNP and RA hydrolysis were subtracted from the total PNP and RA production. […] All collected data were fit to the Michaelis-Menten equation, and kinetic parameters were calculated using nonlinear regression analysis with Graphpad Prism software (Graphpad Software Inc., San Diego, Calif.)
# p.Gly143Glu CES1 [3] = target: T3, p.Gly143Glu CES1 (Homo sapiens, UniProt P23141, G143E/Y526T); assay: as above; assay type: biochemical
# T3 construct: inserting a stop codon after CES1A1 gene to yield the constructs expressing CES1 without V5-His tag; expressed in transfected cells
# T3 sequence (P23141 18-567 G143E/Y526T): T1 sequence (P23141 18-567) with G126E, Y509T
# Description: as §3, §4
# as §2, with “μl. The S9 of cells expressing WT and mutant CES1 were diluted in reaction buffer (PBS containing 10 mM HEPES, pH 7.4) with a final S9 concentration of 20 μg/ml and preincubated at 37° C. for 10 min.” for “μl.”
# as §5
# p.Asp260fs CES1 [4] = target: T4, p.Asp260fs CES1 (Homo sapiens, UniProt P23141); assay: PNPA hydrolysis by S9 of cells expressing p.Asp260fs CES1; assay type: biochemical
# T4 construct: a frameshift mutation that alters residues 260-299 and causes early truncation at a premature stop codon; expressed in transfected cells
# T4 sequence (P23141 with tags, fused parts or gaps): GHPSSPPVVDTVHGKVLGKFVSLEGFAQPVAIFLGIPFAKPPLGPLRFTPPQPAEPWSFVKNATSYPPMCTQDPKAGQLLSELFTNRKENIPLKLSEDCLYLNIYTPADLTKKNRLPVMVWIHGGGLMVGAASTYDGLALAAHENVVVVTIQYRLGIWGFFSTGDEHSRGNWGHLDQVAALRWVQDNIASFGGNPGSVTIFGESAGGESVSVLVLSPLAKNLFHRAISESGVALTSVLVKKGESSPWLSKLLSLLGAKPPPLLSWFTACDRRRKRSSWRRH
# Description: as §3, §4
# as §2, with “μl. The S9 of cells expressing WT and mutant CES1 were diluted in reaction buffer (PBS containing 10 mM HEPES, pH 7.4) with a final S9 concentration of 20 μg/ml and preincubated at 37° C. for 10 min.” for “μl.”
# as §5
# [5] = Spontaneous hydrolysis in reaction buffer; assay type: physicochemical; settings: PBS containing 10 mM HEPES, pH 7.4
# Method: as §5
# WT CES1 [6] = target: T1, WT CES1; assay: MPH hydrolysis to ritalinic acid by S9 of cells expressing WT CES1 (HPLC); assay type: biochemical; settings: S9 0.5 mg/mL, 37° C., 2 hours, mean ± S.D. (n = 3)
# Description: as §3, with “Forty-eight hours after transfection, cells were split at a 1:10 ratio and cultured at 37° C. until cell attachment was observed. Culture medium was then removed and replenished with complete medium supplemented with the selecting antibiotic hygromycin B (100 μg/ml). The cell lines stably expressing WT, p.Gly143Glu, and p.Asp260fs CES1 were obtained only after a minimum 3-week selection process employing hygromycin B. Each generated cell line was identified by both expression detection and enzymatic function assays.” left out
# as §1
# (§6) For the study of MPH hydrolysis, the reaction was conducted in 1.5 mL eppendorf tubes with a final S9 concentration of 0.5 mg/mL at a total volume of 100 μL. […] Concentrations of the primary phase I MPH metabolite produced via hydrolysis, ritalinic acid (RA), was determined utilizing an established HPLC method described below.
# as §5, with “Calif.) […]” for “Calif.)”
# p.Gly143Glu CES1 [7] = target: T2, p.Gly143Glu CES1; assay: MPH hydrolysis to ritalinic acid by S9 of cells expressing p.Gly143Glu CES1 (HPLC); assay type: biochemical; settings: S9 500 μg/ml, even at very high S9 concentration (2 mg/ml); 37° C., 2 h
# Description: as §3, with “Forty-eight hours after transfection, cells were split at a 1:10 ratio and cultured at 37° C. until cell attachment was observed. Culture medium was then removed and replenished with complete medium supplemented with the selecting antibiotic hygromycin B (100 μg/ml). The cell lines stably expressing WT, p.Gly143Glu, and p.Asp260fs CES1 were obtained only after a minimum 3-week selection process employing hygromycin B. Each generated cell line was identified by both expression detection and enzymatic function assays.” left out
# as §1, §6
# as §5, with “Calif.) […]” for “Calif.)”
# p.Asp260fs CES1 [8] = target: T4, p.Asp260fs CES1; assay: MPH hydrolysis to ritalinic acid by S9 of cells expressing p.Asp260fs CES1 (HPLC); assay type: biochemical; settings: S9 500 μg/ml, even at very high S9 concentration (2 mg/ml); 37° C., 2 h
# Description: as §3, with “Forty-eight hours after transfection, cells were split at a 1:10 ratio and cultured at 37° C. until cell attachment was observed. Culture medium was then removed and replenished with complete medium supplemented with the selecting antibiotic hygromycin B (100 μg/ml). The cell lines stably expressing WT, p.Gly143Glu, and p.Asp260fs CES1 were obtained only after a minimum 3-week selection process employing hygromycin B. Each generated cell line was identified by both expression detection and enzymatic function assays.” left out
# as §1, §6
# as §5, with “Calif.) […]” for “Calif.)”
# [9] = Pharmacokinetic study of orally administered racemic MPH in normal volunteers; assay type: in vivo, human; settings: single oral 0.3 mg/kg racemic MPH, plasma
# Method: Analysis of Pharmacokinetic, Hemodynamic, and Statistical Data. Standard pharmacokinetic analyses were applied to the MPH data using WinNonLin software (Pharsight, Mountainview, Calif.) and are described in a previous publication.^10 The AUC, Cmax, and t1/2 were analyzed using the Extreme Studentized Deviate (ESD) single-outlier procedure^12 to determine whether the parameter measurements for the slow metabolizer constituted true statistical outliers. For each parameter, the ESD procedure confirmed the measurement as an outlier at the p<0.01 level. Because this procedure is known to be conservative, the data from the aberrant metabolizer were reassessed using a similar procedure with respect to the normal participants only.
# hCES1 = target: T5, hCES1 (Homo sapiens, UniProt P23141); settings: in vitro; cited from earlier work
# T5 sequence (P23141 18-567): T1 sequence (P23141 18-567)
# [10] = cited from earlier work
# [11] = S9 20 μg/ml, 37° C., 10 min, mean ± S.D. (n = 3)
compound,measurement,setting,value
"CC(=O)Oc1ccc([N+](=O)[O-])cc1 [PNPA, p-nitrophenyl acet]",Km,WT CES1 [1],107 µM
same,Vmax,WT CES1 [1],493.9 nmole/min/mg protein and 493.9 ± 14.3 nmole/min/mg protein
same,Km,p.Gly143Glu CES1 [2],93.2 ± 9.8 µM
same,Km relative to WT,p.Gly143Glu CES1 [3],comparable to that of WT
same,Vmax as percent of that of WT CES1,p.Gly143Glu CES1 [3],18.6%
same,Vmax,p.Gly143Glu CES1 [3]; [11],92.0 ± 2.9 nmole/min/mg protein
same,Km relative to WT,p.Asp260fs CES1 [4],approximately 9.5 times
same,Vmax as percent of that of WT CES1,p.Asp260fs CES1 [4],5.7%
same,Km,p.Asp260fs CES1 [4]; [11],950 ± 352 µM
same,Vmax,p.Asp260fs CES1 [4]; [11],28.0 ± 6.1 nmole/min/mg protein
same,stability in reaction buffer,[5],spontaneously hydrolyzed
"COC(=O)[C@@H](c1ccccc1)[C@@H]1CCCCN1 [l-MPH, l-threo-(S,S)-methylphenidate]",Km,WT CES1 [6],776 ± 162 µM
same,Vmax,WT CES1 [6],1701.0 pmole/min/mg protein and 1701.0 ± 196.5 pmole/min/mg protein
same,catalytic activity towards MPH hydrolysis,p.Gly143Glu CES1 [7],failed to show any hydrolytic activity
same,catalytic activity towards MPH hydrolysis,p.Asp260fs CES1 [8],failed to show any hydrolytic activity
same,Cmax of slow metabolizer relative to the mean of the other subjects,[9],approximately 100 fold
same,Cmax,[9]; slow metabolizer,62 ng/mL
same,catalytic efficiency of hCES1 relative to d-MPH,hCES1,up to 6 fold
same,fraction of the total circulating blood concentrations of MPH,"[10]; racemic MPH, enantioselective analytical methods",1-15%
same,blood concentration relative to that of d-MPH,[10]; studies that measured both isomers,1-15%
same,AUCinf relative to that of d-MPH,[10]; various oral formulations,1%-15%
